{
  "source": "patent US6869791B2",
  "about": "“Method for sterilizing transformed cells” (Sumitomo Chemical Company, Ltd., priority 2000, dated 2005)",
  "key": {"[1]": {"test_system": "E. coli JM105/pYHNK 2 strain", "assay_type": "cell-based, Escherichia coli"}, "[2]": {"test_system": "esterase in culture broth of E. coli JM105/pYHNK 2 strain", "experimental": "0.02 g of N-benzylazetidin-2-carboxyilic acid ethyl ester, 1.0 ml t-butyl methyl ether and 3.5 ml of 100 mM monopotassium phosphate-dipotassium phosphate buffer (pH 7.0) were added in a 10 ml threaded test tube and kept at 35′ for 15 minutes. 200 μl of the esterase solution was put in the test tube to measure its esterase activity and shaken reciprocally (120 str/min) at 35° C. for 16 minutes. Then 400% 1 of the mixed solution was centrifuged (12000 rpm, 5 minutes) after 1 ml t-butyl methyl ether was added and stirred. 200 μl of the obtained aqueous phase was analyzed quantitatively (by absolute calibration curve method) with respect to N-benzylazetidin-2-carboxylic acid by high performance liquid chromatography after dissolved in 20 mM phosphate acid monopotassium water/acetonitrile=90/10 and filtered by a 0.2 μl filter."}, "[3]": {"test_system": "esterase derived from Arthrobacter SC-6-98-28 in culture broth of E. coli JM105/pEAR5 strain", "settings": "stirred 24 hours at 30° C.", "description": "Measurement of the Esterase Activity in Example 13 and 14:\nTo 5 ml of a diluted solution of the culture broth or sterilized solution obtained by the pre sent method was added 1 g of 2,2-dichloro-3-(1-propenyl)cyclopropane-1-carboxylic acid methyl ester (1R/1S=50/50, trans/cis98/2) and the resulting mixture was stirred at 45° C. for 30 minutes while maintaining the pH at 10.0. A portion of the reaction solution was sampled, acidified with hydrochloric acid, and extracted with ethyl acetate. The extract solution was analyzed by gas-chromatography to measure the hydrolysis rate (Internal standard: methyl cinnamate, column: HR20M 0.53 φ, 30 m, 1 μ, ULBON). The esterase activity was calculated from the hydrolysis rate."}, "[4]": {"test_system": "esterase derived from Chromobacterium SC-YM-1 (160S, 189Y mutant) in culture broth of E. coli JM 105/pCC160S189Y363term strain", "settings": "stirred 24 hours at 30° C.", "description": "Measurement of the enzyme activity was performed by using p-nitrophenyl acetate (pNPA) as a substrate. A sample enzyme solution was added to a 3.0 ml of 100 mM phosphate buffer solution (pH 7.5) containing the substrate at a concentration of 5 mM and the resulting mixture is maintained at 37° C. An amount of liberated p-nitrophenol was measured by the increase of absorbance at 405 nm."}, "[5]": {"test_system": "E. coli JM 105/pCC160S189Y363term strain", "settings": "stirred 24 hours at 30° C.", "description": "(§1) Number of viable cells was determined by the following method.\n(§2) About 1 ml of a sample solution to be measured with the number of viable cells was diluted with physiological saline cooled to 4° C. 100 μl of the diluted solution was applied onto a LB-medium plate (L-Broth Ager (manufactured by BIO 101 Company, Ltd) containing ampicilline at a concentration of 100 μ/ml and kept at 37° C. for 1 to 2 days. Thereafter, number of the viable cells was calculated from the number of colonies grown thereon."}, "[6]": {"test_system": "E. coli JM105/pEAR5 strain", "settings": "stirred 24 hours at 30° C.", "description": "as §1, §2"}, "[7]": {"settings": "Example 5: 40 ml culture broth + 10 ml methanol, stirred 24 hours at 30° C."}, "[8]": {"settings": "Example 6: 40 ml culture broth + 10 ml methanol, stirred 6 hours at 30° C."}, "[9]": {"settings": "Example 7: 40 ml culture broth + 10 ml methanol, stirred 48 hours at 30° C."}, "[10]": {"settings": "Example 8: 40 ml culture broth + 10 ml methanol, stirred 5 hours at 25° C."}, "[11]": {"settings": "Example 13: 45 g culture broth + 5 g ethanol"}, "[12]": {"settings": "Example 14: 37.5 g culture broth + 12.5 g ethanol"}, "[13]": {"settings": "Example 1: 40 ml culture broth + 10 ml ethanol, stirred 24 hours at 30° C."}, "[14]": {"settings": "Example 2: 40 ml culture broth + 10 ml ethanol, stirred 6 hours at 30° C."}, "[15]": {"settings": "Example 3: 40 ml culture broth + 10 ml ethanol, stirred 48 hours at 30° C."}, "[16]": {"settings": "Example 4: 42.5 ml culture broth + 7.5 ml ethanol, stirred 24 hours at 30° C."}, "[17]": {"settings": "Example 15: 45 g culture broth + 5 g ethanol"}, "[18]": {"settings": "Example 16: 37.5 g culture broth + 12.5 g ethanol"}, "[19]": {"settings": "Example 9: 40 ml culture broth + 10 ml acetone, stirred 24 hours at 30° C."}, "[20]": {"settings": "Example 10: 40 ml culture broth + 10 ml acetone, stirred 6 hours at 30° C."}, "[21]": {"settings": "Example 11: 40 ml culture broth + 10 ml acetone, stirred 48 hours at 30° C."}, "[22]": {"settings": "Example 12: 40 ml culture broth + 6.5 ml acetone, stirred 24 hours at 30° C."}},
  "note": "Like-named read-outs stand apart in the source and are kept apart here.",
  "data": [
    {"smiles": "CO", "note": "[methanol]", "values": [
      {"measurement": "viable cell number", "setting": "[1]; [7]", "result": 0, "unit": "cfu/ml"},
      {"measurement": "viable cell number", "setting": "[1]; [8]", "result": 0, "unit": "cfu/ml"},
      {"measurement": "viable cell number", "setting": "[1]; [9]", "result": 0, "unit": "cfu/ml"},
      {"measurement": "viable cell number", "setting": "[1]; [10]", "result": 0, "unit": "cfu/ml"},
      {"measurement": "esterase activity of the mixed solution, relative to culture broth (1)", "setting": "[2]; [7]", "result": "≥ 95", "unit": "%"},
      {"measurement": "esterase activity of the mixed solution, relative to culture broth (1)", "setting": "[2]; [8]", "result": "≥ 95", "unit": "%"},
      {"measurement": "esterase activity of the mixed solution, relative to broth solution (1)", "setting": "[2]; [9]", "result": "≥ 95", "unit": "%"},
      {"measurement": "esterase activity of the mixed solution, relative to culture broth (1)", "setting": "[2]; [10]", "result": "≥ 92", "unit": "%"}
    ]},
    {"smiles": "CCO", "note": "[ethanol]", "values": [
      {"measurement": "esterase activity of the solution, relative to culture broth (2)", "setting": "[3]; [11]", "result": "≥ 95", "unit": "%"},
      {"measurement": "esterase activity of the solution, relative to culture broth (2)", "setting": "[3]; [12]", "result": "≥ 95", "unit": "%"},
      {"measurement": "viable cell number", "setting": "[1]; [13]", "result": 0, "unit": "cfu/ml"},
      {"measurement": "viable cell number", "setting": "[1]; [14]", "result": 0, "unit": "cfu/ml"},
      {"measurement": "viable cell number", "setting": "[1]; [15]", "result": 0, "unit": "cfu/ml"},
      {"measurement": "viable cell number", "setting": "[1]; [16]", "result": 0, "unit": "cfu/ml"},
      {"measurement": "esterase activity of the solution, relative to culture broth (3)", "setting": "[4]; [17]", "result": "≥ 95", "unit": "%"},
      {"measurement": "esterase activity of the solution, relative to culture broth (3)", "setting": "[4]; [18]", "result": "≥ 95", "unit": "%"},
      {"measurement": "viable cell number", "setting": "[5]; [17]", "result": 0, "unit": "cfu/ml"},
      {"measurement": "viable cell number", "setting": "[5]; [18]", "result": 0, "unit": "cfu/ml"},
      {"measurement": "viable cell number", "setting": "[6]; [11]", "result": 0, "unit": "cfu/ml"},
      {"measurement": "viable cell number", "setting": "[6]; [12]", "result": 0, "unit": "cfu/ml"},
      {"measurement": "esterase activity of the mixed solution, relative to culture broth (1)", "setting": "[2]; [13]", "result": "≥ 95", "unit": "%"},
      {"measurement": "esterase activity of the mixed solution, relative to culture broth (1)", "setting": "[2]; [14]", "result": "≥ 95", "unit": "%"},
      {"measurement": "esterase activity of the mixed solution, relative to culture broth (1)", "setting": "[2]; [15]", "result": "≥ 95", "unit": "%"},
      {"measurement": "esterase activity of the mixed solution, relative to culture broth (1)", "setting": "[2]; [16]", "result": "≥ 95", "unit": "%"}
    ]},
    {"smiles": "CC(C)=O", "note": "[acetone]", "values": [
      {"measurement": "viable cell number", "setting": "[1]; [19]", "result": 0, "unit": "cfu/ml"},
      {"measurement": "viable cell number", "setting": "[1]; [20]", "result": 0, "unit": "cfu/ml"},
      {"measurement": "viable cell number", "setting": "[1]; [21]", "result": 0, "unit": "cfu/ml"},
      {"measurement": "viable cell number", "setting": "[1]; [22]", "result": 0, "unit": "cfu/ml"},
      {"measurement": "esterase activity of the mixed solution, relative to culture broth (1)", "setting": "[2]; [19]", "result": "≥ 95", "unit": "%"},
      {"measurement": "esterase activity of the mixed solution, relative to culture broth (1)", "setting": "[2]; [20]", "result": "≥ 95", "unit": "%"},
      {"measurement": "esterase activity of the mixed solution, relative to culture broth (1)", "setting": "[2]; [21]", "result": "≥ 95", "unit": "%"},
      {"measurement": "esterase activity of the mixed solution, relative to culture broth (1)", "setting": "[2]; [22]", "result": "≥ 95", "unit": "%"}
    ]}
  ]
}
